“Also recorded” adds a separate entry of the source.

System in one data set: not listed separately
In words: Solubility of NA32176A (physicochemical properties). Conditions: qualitative, by solvent; listed as NA32176A. The source says: Physicochemical properties of the thus obtained physiologically active substance NA32176A are shown below.
Turning to `CC(C)(CO)C(O)C(=O)NCCC(=O)NCCSCC1C(=O)CCC1C(=O)O` [Compound 1E, (1R,2S)-2-[N-(panthoyl- -alanylamido)ethylthio]methyl-3-oxo-1-cyclopentanecarboxylic Acid], the Solubility result is “soluble in a lower alcohol, water or dimethylsulfoxide; also recorded: insoluble in hexane or petroleum ether”.

The next data set concerns PC12 cells. In words: Neuron-like neurite extension on PC12 cells. As to conditions: morphological change observed microscopically one day after adding test compound. It counts as cell-based, rat. The source says: Neuron-like neurite extension effect of the compounds of this invention on PC12 cells
The effect of the compounds of the invention was examined by a modification of the method of Green et al., Ann. Rev. Neurosci., 3, 353, 1980, and evaluated in terms of morphological change of PC12 cells and a level of the change. That is, PC12 cells were inoculated on Dulbecco-modified Eagle's medium supplemented with 10% calf fetal serum and 10% equine serum in approximately 100,000 cells/ml. The cells were incubated at 37° C. overnight in 5% CO2 using collagen-coated 96 well multiplates. Morphological change of the cells was microscopically observed one day after the test compound was added to each well under this conditions.
The minimum effective dose (MED, g/ml) of each compound on PC12 cells that caused neuron-like neurite extension is shown in Table 2 below.
`COC(=O)[C@H](CSCC1CC(C(=O)O)CC1=O)NC(C)=O` (stereo partly drawn) [Compound 2A, 4-[(2R)-(2-acetylamino-2-methoxycarbonyl)ethylthio]methyl-3-oxo-1-cyclopentanecarboxylic Acid] yielded a Minimum effective dose (MED) to cause neuron-like neurite extension on PC12 cells of 3.2 µg/mL.

The compound `C[n+]1cccc(CCCSCC2C(=O)CCC2C(=O)O)c1.[I-]` [Compound 15B, (1R,2S)-2-[3-{3-(1-methylpyridinium iodide)}propylthio]methyl-3-oxo-1-cyclopentanecarboxylic Acid] showed a Minimum effective dose (MED) to cause neuron-like neurite extension on PC12 cells of 3.1 µg/mL. On to `CC(=O)N[C@@H](CSCC1=C[C@H](O)CC1=O)C(=O)O` [Compound 2C, (4R)-2-[(2R)-(2-acetylamino-2-carboxy)ethylthio]methyl-4-hydroxy-2-cyclopenten-1-one], for which the Minimum effective dose (MED) to cause neuron-like neurite extension on PC12 cells amounted to 6.3 µg/mL. Same read-out and setting: for `CC(=O)N[C@@H](CSC[C@@H]1C(=O)CC[C@H]1C(=O)O)C(=O)N1CCN(c2ccccc2)CC1` [Compound 13B, (1R,2S)-2-[(2R)-2-acetylamino-3-oxo-3-{1-(4-phenyl)piperazinyl}propylthio]methyl-3-oxo-1-cyclopentanecarboxylic Acid] the value was 1.6 µg/mL; for `CC(=O)N[C@@H](CSC[C@@H]1C(=O)CC[C@H]1C(=O)O)C(=O)N1CCCC1` [Compound 1B, (1R,2S)-2-[(2R)-{2-acetylamino-3-oxo-3-(1-pyrrolidinyl)}propylthio]methyl-3-oxo-1-cyclopentanecarboxylic Acid], 3.2 µg/mL. The same measure, in the same setting: for “4-(4-methoxyphenyl)-4-oxo-3-(1-piperidyl)methylbutyric Acid [Compound 3F]” the value was 3.1 µg/mL. Same read-out and setting: for `CC(=O)N[C@@H](CSCC1CC(C(=O)O)CC1=O)C(=O)O` (stereo partly drawn) [Compound 1A, 4-[(2R)-(2-acetylamino-2-carboxy)ethylthio]methyl-3-oxo-1-cyclopentanecarboxylic Acid] the value was 3.2 µg/mL; for “(1R,2S)-2-[(2R)-({2-carboxy-2-pentafluoropropionylamino)ethylthio]methyl-3-oxo-1-cyclopentanecarboxylic acid [Compound 4B]”, 3.2 µg/mL; for `CC(=O)N[C@@H](CSCC(CCC(=O)O)C(=O)c1ccccc1)C(=O)O` (stereo partly drawn) [Compound 38D, 4-[(2R)-{(2-acetylamino-2-carboxy)ethylthio}]methyl-5-oxo-5-phenylpentanoic acid], 6.3 µg/mL. Consider `COC(=O)[C@H](CSCC(CC(=O)O)C(=O)c1ccccc1)NC(C)=O` (stereo partly drawn) [Compound 8D, 3-[(2R)-(2-acetylamino-2-methoxycarbonyl)ethylthio]methyl-4-oxo-4-phenylbutyric Acid], for which the Minimum effective dose (MED) to cause neuron-like neurite extension on PC12 cells amounted to 6.3 µg/mL. Still for that read-out and setting: for “4-(1-piperazinyl)methyl-5-oxo-5-phenylpentanoic Acid [Compound 42F]” the value was 1.6 µg/mL; for `CC(=O)NC(CCCCCCCCCCSC[C@@H]1C(=O)CC[C@H]1C(=O)O)C(=O)O` (relative stereo) [Compound 9B, trans-2-[(11-acetylamino-11-carboxy)undecylthio]methyl-3-oxo-1-cyclopentanecarboxylic acid], 6.3 µg/mL. Same read-out and setting: for `COC(=O)[C@@H]1CCC(=O)[C@H]1CSC[C@H](NC(C)=O)C(=O)N1CCCC1` (relative stereo) [Compound 5B, trans-2-[(2R)-{2-acetylamino-3-oxo-3-(1-pyrrolidinyl)}propylthio]methyl-3-methoxycarbonyl-1-cyclopentanone] the value was 0.8 µg/mL; for “3-{2-(acetylamino)ethylthio}methyl-4-(4-methylphenyl)-4-oxobutyric Acid [Compound 12D]”, 13 µg/mL. Still for that read-out and setting: for `COC(=O)[C@@H]1CCCN1C(=O)[C@H](CSC[C@@H]1C(=O)CC[C@H]1C(=O)O)NC(C)=O` (relative stereo) [Compound 6B, trans-2-[(2R)-[2-acetylamino-3-{1-((2S)-2-methoxycarbonylpyrrolidinyl)}-3-oxo]propylthio]methyl-3-oxo-1-cyclopentanecarboxylic Acid] the value was 1.6 µg/mL; for `COC(=O)[C@H](CSCC(CC(=O)O)C(=O)c1cccnc1)NC(C)=O` (stereo partly drawn) [Compound 32D, 3-[(2R)-(2-acetylamino-2-methoxycarbonyl)ethylthio]methyl-4-oxo-4-(3-pyridyl)butyric Acid], 3.1 µg/mL. With `COC(=O)[C@H](CSCC1C(=O)c2ccccc2C1C(=O)O)NC(C)=O` (stereo partly drawn) [Compound 6A, 2-((2R)-(2-acetylamino-2-methoxycarbonyl)ethylthio)methyl-3-oxo-1-indanecarboxylic Acid], the Minimum effective dose (MED) to cause neuron-like neurite extension on PC12 cells worked out at 25 µg/mL. Still for that read-out and setting: for `COC(=O)[C@H](CSCC(CC(=O)O)C(=O)c1ccc(OC)cc1)NC(C)=O` (stereo partly drawn) [Compound 9D, 3-[(2R)-(2-acetylamino-2-methoxycarbonyl)ethylthio]methyl-4-(4-methoxyphenyl)-4-oxobutyric Acid] the value was 50 µg/mL; for `COC(=O)[C@H](CSCC(CC(=O)O)C(=O)c1ccc(C)cc1)NC(C)=O` (stereo partly drawn) [Compound 13D, 3-{(2R)-(2-acetylamino-2-methoxycarbonyl)ethylthio}methyl-4-(4-methylphenyl)-4-oxobutyric Acid], 13 µg/mL; for `CN1CCN(CC(CC(=O)O)C(=O)c2ccccc2)CC1` (stereo not shown) [Compound 6F, 3-{1-(4-methylpiperazinyl)}methyl-4-oxo-4-phenylbutyric acid], 3.1 µg/mL.

On to `CC(=O)N[C@@H](CSC[C@@H]1C(=O)CC[C@H]1C(=O)O)C(=O)N1CCOCC1` [Compound 2B, (1R,2S)-2-[(2R)-{2-acetylamino-3-(4-morpholinyl)-3-oxo}propylthio]methyl-3-oxo-1-cyclopentanecarboxylic Acid], for which the Minimum effective dose (MED) to cause neuron-like neurite extension on PC12 cells was 1.6 µg/mL. The same measure, in the same setting: for “4-(4-methylphenyl)-4-oxo-3-(1-piperidyl)methylbutyric Acid [Compound 2F]” the value was 3.1 µg/mL; for `COC(=O)[C@@H]1CCN1C(=O)[C@H](CSC[C@@H]1C(=O)CC[C@H]1C(=O)O)NC(C)=O` (relative stereo) [Compound 7B, trans-2-[(2R)-[2-acetylamino-3-{1-((2S)-2-methoxycarbonylazetidinyl)}-3-oxo]propylthio]methyl-3-oxo-1-cyclopentanecarboxylic Acid], 3.1 µg/mL; for “trans-2-[(2R)-(2-carboxy-2-pentafluoropropionylamino)ethylthio]methyl-3-hydroxymethyl-1-cyclopentanone [Compound 8B]”, 0.8 µg/mL. Turning to “2-methyl-4-oxo-4-phenyl-3-(1-piperazinyl)methylbutyric Acid [Compound 41F]”, the Minimum effective dose (MED) to cause neuron-like neurite extension on PC12 cells turned out to be 6.3 µg/mL.

As for `CC(=O)N[C@@H](CSCC(CC(=O)O)C(=O)c1ccccc1)C(=O)O` (stereo partly drawn) [Compound 7D, 3-[(2R)-(2-acetylamino-2-carboxy)ethylthio]methyl-4-oxo-4-phenylbutyric Acid], the Minimum effective dose (MED) to cause neuron-like neurite extension on PC12 cells is 13 µg/mL.

Another data set has as its system PC 12 cells.
Test: not given
Conditions: qualitative, background art; cited from earlier work.
With `CN[C@@H]1C[C@H]2O[C@@](C)([C@@H]1OC)n1c3ccccc3c3c4c(c5c6ccccc6n2c5c31)C(=O)NC4` [staurosporin], the “PC 12 cell differentiation promoting activity” value is listed as “found to have the PC 12 cell differentiation promoting activity”.
